Data published in the supplement of paper PMC10307832.

compound: CC1=C(N=C(N=C1N)[C@H](CC(=O)N)NC[C@@H](C(=O)N)N)C(=O)N[C@@H]([C@H](C2=CN=CN2)OC3C(C(C(C(O3)CO)O)O)OC4C(C(C(C(O4)CO)O)OC(=O)N)O)C(=O)N[C@H](C)[C@H]([C@H](C)C(=O)N[C@@H]([C@@H](C)O)C(=O)NCCC5=NC(=CS5)C6=NC(=CS6)C(=O)NCCC[S+](C)C)O [Bleomycin] + CS(=O)(=O)CCNCc1ccc(-c2ccc3ncnc(Nc4ccc(OCc5cccc(F)c5)c(Cl)c4)c3c2)o1 [Lapatinib] (partner 2 µM); assay: relative viability (nuclei count vs DMSO), 5 days (fraction); higher = more cells survive; details: first compound 0.01 µM; main component drawn
Procedure, shortened: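 Relative viability is defined as nuclei in treated wells over nuclei in vehicle wells. Duplicate plates were run and medians reported. Lung cancer cell lines in 1536-well plates were dosed by pin tool one day after seeding, with one drug or with a fixed anchor-drug dose plus five library-drug doses (not always all listed) in √10 steps, and nuclei were counted after 5 days.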

Point of comparison: NCI-H650, relative viability 0.537. Against it:
- LOU-NH91 — higher, 0.679
- NCI-H3122 — higher, 0.931
- HOP-62 — lower, 0.485
- HCC-44 — higher, 0.648
- LU99A — higher, 0.58
- BEN — higher, 0.72
- HARA — higher, 0.764
- HCC-78 — higher, 0.64
- LCLC-97TM1 — lower, 0.264
- NCI-H2009 — higher, 0.808
- A-427 — higher, 0.797
- NCI-H460 — lower, 0.296
- NCI-H727 — higher, 0.718
- NCI-H1734 — higher, 0.802
- NCI-H520 — higher, 0.715
- NCI-H2405 — higher, 0.836
- SW 1573 — higher, 1.05
- 201T — higher, 1
- NCI-H1915 — higher, 0.669
- HCC-827 — lower, 0.197
- LXF-289 — higher, 0.807
- NCI-H2347 — higher, 0.836
- NCI-H1651 — higher, 0.75
- EPLC-272H — higher, 0.586
- NCI-H23 — lower, 0.419

same assay, conditions: first compound 0.03162 µM; main component drawn

Point of comparison: CAL-12T, relative viability 0.557. Against it:
- LOU-NH91 — higher, 0.609
- NCI-H3122 — higher, 0.996
- HOP-62 — lower, 0.395
- HCC-44 — lower, 0.429
- LU99A — higher, 0.742
- BEN — higher, 0.709
- HARA — higher, 0.734
- HCC-78 — higher, 0.918
- LCLC-97TM1 — lower, 0.288
- NCI-H2009 — higher, 0.892
- A-427 — higher, 0.874
- NCI-H460 — lower, 0.29
- NCI-H727 — higher, 0.781
- NCI-H1734 — higher, 0.854
- NCI-H520 — higher, 0.79
- NCI-H2405 — higher, 1.01
- SW 1573 — higher, 0.871
- 201T — higher, 0.958
- NCI-H1915 — higher, 0.771
- HCC-827 — lower, 0.204
- LXF-289 — higher, 0.884
- NCI-H2347 — higher, 0.974
- NCI-H650 — higher, 0.748
- NCI-H1651 — higher, 0.653
- EPLC-272H — higher, 0.812
- NCI-H23 — lower, 0.314

same assay, conditions: first compound 0.1 µM; main component drawn

Point of comparison: NCI-H650, relative viability 0.686. Against it:
- LOU-NH91 — lower, 0.51
- NCI-H3122 — higher, 0.842
- HOP-62 — lower, 0.15
- HCC-44 — lower, 0.228
- LU99A — lower, 0.271
- BEN — higher, 0.913
- HARA — higher, 0.704
- HCC-78 — lower, 0.549
- LCLC-97TM1 — lower, 0.151
- NCI-H2009 — higher, 0.92
- A-427 — higher, 0.776
- NCI-H460 — lower, 0.0624
- NCI-H727 — higher, 0.695
- NCI-H1734 — higher, 0.691
- NCI-H520 — higher, 0.833
- NCI-H2405 — higher, 0.889
- SW 1573 — higher, 0.84
- 201T — higher, 0.961
- NCI-H1915 — lower, 0.385
- HCC-827 — lower, 0.187
- LXF-289 — lower, 0.635
- NCI-H2347 — higher, 0.966
- CAL-12T — lower, 0.454
- NCI-H1651 — lower, 0.595
- EPLC-272H — lower, 0.369
- NCI-H23 — lower, 0.268

same assay, conditions: first compound 0.3162 µM; main component drawn

Point of comparison: A-427, relative viability 0.369. Against it:
- LOU-NH91 — lower, 0.361
- NCI-H3122 — higher, 0.654
- HOP-62 — lower, 0.14
- HCC-44 — lower, 0.193
- LU99A — lower, 0.138
- BEN — higher, 0.571
- HARA — higher, 0.644
- HCC-78 — higher, 0.429
- LCLC-97TM1 — lower, 0.168
- NCI-H2009 — higher, 0.379
- NCI-H460 — lower, 0.0161
- NCI-H727 — lower, 0.204
- NCI-H1734 — lower, 0.268
- NCI-H520 — higher, 0.54
- NCI-H2405 — lower, 0.357
- SW 1573 — higher, 0.446
- 201T — higher, 0.916
- NCI-H1915 — lower, 0.192
- HCC-827 — lower, 0.173
- LXF-289 — lower, 0.206
- NCI-H2347 — higher, 0.612
- NCI-H650 — lower, 0.318
- CAL-12T — lower, 0.218
- NCI-H1651 — lower, 0.229
- EPLC-272H — lower, 0.205
- NCI-H23 — lower, 0.197

same assay, conditions: first compound 1 µM; main component drawn

Point of comparison: NCI-H2009, relative viability 0.365. Against it:
- LOU-NH91 — lower, 0.298
- NCI-H3122 — higher, 0.528
- HOP-62 — lower, 0.141
- HCC-44 — lower, 0.145
- LU99A — lower, 0.108
- BEN — higher, 0.542
- HARA — lower, 0.308
- HCC-78 — lower, 0.215
- LCLC-97TM1 — lower, 0.093
- A-427 — lower, 0.169
- NCI-H460 — lower, 0.0213
- NCI-H727 — higher, 0.472
- NCI-H1734 — lower, 0.184
- NCI-H520 — higher, 0.43
- NCI-H2405 — lower, 0.262
- SW 1573 — higher, 0.4
- 201T — higher, 0.78
- NCI-H1915 — lower, 0.15
- HCC-827 — lower, 0.15
- LXF-289 — lower, 0.179
- NCI-H2347 — higher, 0.493
- NCI-H650 — lower, 0.21
- CAL-12T — lower, 0.21
- NCI-H1651 — lower, 0.149
- EPLC-272H — lower, 0.109
- NCI-H23 — lower, 0.165
